Test [1] addresses T1, HEK-293 cells transfected with dox-inducible human wild type FGFR1 (Homo sapiens (Human), UniProt P11362). Kind of test: FGFR1 pERK cell assay. The class given is cell-based. The note with it: HEK-293 dox-inducible FGFR1, 1 hour compound, 100 ng/ml FGF-acidic; maximum concentration 5 μM. The essentials:
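In HEK-293 cells with dox-induced human wild-type FGFR1, compounds (1:3 dilutions, top 5 μM final) were applied 1 h at 37°C before 5 min stimulation with 100 ng/ml FGF-acidic. Phospho-ERK1/2 measured by MSD sandwich immunoassay; IC50 from 4-parameter fit of POC versus vehicle and control compound.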

For test [2], the target named is dephosphorylated FGFR2 (Homo sapiens (Human), UniProt P21802). Description: FGFR enzyme binding assay (HTRF tracer displacement), FGFR2. The note with it: 5 nM dephosphorylated FGFR2, average of multiple determinations if made. The essentials: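 Kinase and tracer were incubated with compound for 60 minutes at 22° C. Tracer displacement was then measured by HTRF, and results were expressed as POC with 1 μM control inhibitor defining full displacement.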
(In TR-FRET formats the signal depends on donor and acceptor labels being close together.)

For test [3], the target named is HEK-293 cells transfected with dox-inducible human wild type FGFR2 (Homo sapiens (Human), UniProt P21802). Kind of test: FGFR2 pFGFR cell assay (ELISA). Type of test: cell-based. The following applies: HEK-293 dox-inducible FGFR2, 1 hour compound, 30 ng/ml FGF-acidic. Summed up:
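Doxycycline-induced (1 μg/ml) cells preincubated with compound (1:3 serial dilutions, top final 5 μM) for 1 h at 37 °C, then stimulated with 30 ng/ml FGF-acidic for 5 min. Lysates assayed by ELISA capturing total FGFR2 and detecting phosphotyrosine (OD 450 nm). POC relative to no-compound and control-compound wells; IC50 from 4-parameter logistic fit.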
(An ELISA detects its analyte on a solid surface through an enzyme-linked reagent.)

Test [4] has as its target T1, HEK-293 cells transfected with dox-inducible human wild type FGFR1. Description: FGFR1 pFGFR cell assay (ELISA). Type of test: cell-based. The note with it: HEK-293 dox-inducible FGFR1, 1 hour compound. How it is done:
FGFR1 pFGFR Cell Assay: • HEK-293 cells transfected with dox-inducible human wild type FGFR1 (SEQ ID NO: 1) were plated in a collagen or poly-D-lysine coated 96 well flat bottom plates at 4×10^5 cells/well in complete DMEM medium containing 10% FBS and 1 μg/ml doxycycline and allowed to attach for 24 h at 37° C., 5% CO2. Cells were treated with compound using 1:3 serial dilutions with a maximum final concentration of 5 μM. Compound was incubated on cells for 1 hour at 37° C., 5% CO2. Medium was removed, and cells were lysed with lysis buffer containing phosphatase and protease inhibitors. Phospho FGFR1 was measured by ELISA (R&D Systems cat. no. DYC5079 or Cell Signaling Technology cat. no. 12909). The ELISA captures total FGFR1 and detects total phospho tyrosine. Optical density was measured for each well using a Versamax reader at a wavelength of 450 nm. 100 POC was determined using no test compounds and 0 POC was determined using a control compound. The POC values were fit to a 4-parameter logistic curve as a function of the concentration of the compound, and the IC50 value is the point where the curve crosses 50 POC.

dephosphorylated FGFR2, sequence (P21802 22-821): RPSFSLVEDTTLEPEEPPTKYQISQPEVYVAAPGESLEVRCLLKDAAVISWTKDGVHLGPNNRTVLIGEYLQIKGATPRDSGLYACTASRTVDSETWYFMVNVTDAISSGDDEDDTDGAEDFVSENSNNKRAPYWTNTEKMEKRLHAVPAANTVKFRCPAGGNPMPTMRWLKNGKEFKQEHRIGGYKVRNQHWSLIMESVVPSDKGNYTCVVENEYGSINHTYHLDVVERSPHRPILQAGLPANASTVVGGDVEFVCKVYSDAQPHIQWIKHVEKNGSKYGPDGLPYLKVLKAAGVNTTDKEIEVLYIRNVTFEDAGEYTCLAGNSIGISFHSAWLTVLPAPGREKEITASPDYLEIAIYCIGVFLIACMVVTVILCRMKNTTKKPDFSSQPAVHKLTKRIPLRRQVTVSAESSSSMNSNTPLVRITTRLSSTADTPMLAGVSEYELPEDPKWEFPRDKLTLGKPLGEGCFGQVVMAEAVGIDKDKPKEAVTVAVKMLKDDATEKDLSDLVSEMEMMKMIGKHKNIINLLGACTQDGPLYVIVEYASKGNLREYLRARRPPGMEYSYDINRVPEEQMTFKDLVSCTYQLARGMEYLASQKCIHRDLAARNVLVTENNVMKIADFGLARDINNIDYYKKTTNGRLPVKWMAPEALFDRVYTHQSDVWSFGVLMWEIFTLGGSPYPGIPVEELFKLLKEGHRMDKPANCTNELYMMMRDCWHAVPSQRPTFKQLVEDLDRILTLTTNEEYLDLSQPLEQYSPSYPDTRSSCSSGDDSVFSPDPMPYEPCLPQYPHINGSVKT
HEK-293 cells transfected with dox-inducible human wild type FGFR2, sequence (P21802 22-821): as above
T1 sequence (P11362 22-822): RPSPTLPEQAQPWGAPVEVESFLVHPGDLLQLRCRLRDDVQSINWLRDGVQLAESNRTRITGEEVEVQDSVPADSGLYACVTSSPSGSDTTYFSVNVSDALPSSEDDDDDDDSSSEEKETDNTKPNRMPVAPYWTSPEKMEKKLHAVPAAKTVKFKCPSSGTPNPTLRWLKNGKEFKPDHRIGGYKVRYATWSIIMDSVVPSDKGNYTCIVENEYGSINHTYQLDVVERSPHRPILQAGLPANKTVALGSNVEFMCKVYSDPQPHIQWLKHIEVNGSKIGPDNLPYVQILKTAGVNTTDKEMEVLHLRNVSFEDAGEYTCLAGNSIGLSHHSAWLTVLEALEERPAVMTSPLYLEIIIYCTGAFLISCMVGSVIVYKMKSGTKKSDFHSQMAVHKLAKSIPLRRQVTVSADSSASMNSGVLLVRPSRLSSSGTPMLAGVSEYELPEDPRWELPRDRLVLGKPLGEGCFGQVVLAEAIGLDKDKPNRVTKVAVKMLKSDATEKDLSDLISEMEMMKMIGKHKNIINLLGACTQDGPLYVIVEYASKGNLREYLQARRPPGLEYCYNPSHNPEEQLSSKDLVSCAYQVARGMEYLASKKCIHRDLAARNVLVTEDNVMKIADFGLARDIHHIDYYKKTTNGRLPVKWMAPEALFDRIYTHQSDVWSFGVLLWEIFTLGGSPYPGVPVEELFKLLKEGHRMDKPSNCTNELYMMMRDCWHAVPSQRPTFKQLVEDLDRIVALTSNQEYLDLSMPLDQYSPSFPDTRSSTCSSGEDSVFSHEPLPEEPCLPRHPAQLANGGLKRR

Usually IC50 stands for the concentration needed to halve the response being measured. For `C=CC(=O)N1CC(F)(C(=O)N2CCC(n3ncc(-c4cc(OC)c5c(C#N)cnn5c4)c3C)CC2)C1` [Example 85, 6-(1-(1-(1-acryloyl-3-fluoroazetidine-3-carbonyl)piperidin-4-yl)-5-methyl-1H-pyrazol-4-yl)-4-methoxypyrazolo[1,5-a]pyridine-3-carbonitrile], the IC50 in test [1] came out at 462 nM; in test [2], 36 nM; in test [3], 61 nM.

As for `C=CC(=O)N1CC(OC)(C(=O)N2CCC(n3ncc(-c4cc(OC)c5c(C#N)cnn5c4)c3C)CC2)C1` [Example 88, 6-(1-(1-(1-acryloyl-3-methoxyazetidine-3-carbonyl)piperidin-4-yl)-5-methyl-1H-pyrazol-4-yl)-4-methoxypyrazolo[1,5-a]pyridine-3-carbonitrile], the half-inhibitory concentration (IC50) was found to be 605 nM in test [1], 12 nM in test [2] and 143 nM in test [3].

In the case of `C=CC(=O)N1CC(CN2CCC(n3ncc(-c4cc(OC)c5c(C#N)cnn5c4)c3C)CC2)C1` [Example 89, 6-(1-(1-((1-acryloylazetidin-3-yl)methyl)piperidin-4-yl)-5-methyl-1H-pyrazol-4-yl)-4-methoxypyrazolo[1,5-a]pyridine-3-carbonitrile], the IC50 in test [1] turned out to be 541 nM; in test [2], 53 nM; in test [3], 96 nM.

With `C=CC(=O)N1CC(C)(CN2CCC(n3ncc(-c4cc(OC)c5c(C#N)cnn5c4)c3C)CC2)C1` [Example 90, 6-(1-(1-((1-acryloyl-3-methylazetidin-3-yl)methyl)piperidin-4-yl)-5-methyl-1H-pyrazol-4-yl)-4-methoxypyrazolo[1,5-a]pyridine-3-carbonitrile], the half-inhibitory concentration (IC50) stood at 2240 nM in test [1], 54 nM in test [2] and 109 nM in test [3].

On to `C=CC(=O)N1CC(CN2CCC(n3ncc(-c4cc(OC)c5c(C#N)cnn5c4)c3C)CC2)(OC)C1` [Example 91, 6-(1-(1-((1-acryloyl-3-methoxyazetidin-3-yl)methyl)piperidin-4-yl)-5-methyl-1H-pyrazol-4-yl)-4-methoxypyrazolo[1,5-a]pyridine-3-carbonitrile], for which the half-inhibitory concentration (IC50) in test [1] stood at 341 nM; in test [2], 19 nM; in test [3], 108 nM.

Turning to `C=CC(=O)Nc1ccc(C(=O)N2CCC(n3cc(-c4cc(OC)c5c(C#N)cnn5c4)cn3)CC2)cc1` [Example 177, N-(4-(4-(4-(3-cyano-4-methoxypyrazolo[1,5-a]pyridin-6-yl)-1H-pyrazol-1-yl)piperidine-1-carbonyl)phenyl)acrylamide], the IC50 in test [4] came to 123 nM.

These data come from patent publication US12180207B2 (ARRAY BIOPHARMA INC., priority 2018, dated 2024).
